Patent US20040175368A1 (Wisconsin Alumni Research Foundation, priority 2001, published 2004)

What was measured:
murine CFU-GM cells = test: Dye-sensitized photoinactivation of normal hematopoietic CFU-GM cells, in vitro clonal assay; assay type: cell-based; conditions: 1.0×10^−6 M dye, 12% FBS, light up to 90 min (FIG. 3 lower panel)
L1210 cells = test: Uptake of dye by L1210 cells; assay type: cell-based, murine; conditions: for Dye Uptake by L1210 Cells: 1 hour at 37° C. in the dark, 12% FBS
Protocol: L1210 cells were suspended at a concentration of 1.0×10^6 cells/mL in HEPES-buffered (10 mM, pH 7.4) alpha-medium supplemented with FBS (12%), and the TAM^+dyes were added from 1.0×10^−4M stock solutions in 50% ethanol to final concentrations of […]. The cells were subsequently incubated in the dark for 1 hour at 37° C., pelleted, washed with dye-free medium, and extracted with ethanol (1 mL per […]). The dye content of each extract was determined spectrophotometrically using calibration curves assembled using suitable dilutions of authentic dye in ethanol extracts of cells that had been incubated in dye-free medium.

[1] = Photobleaching quantum efficiency of TAM+ dyes noncovalently bound to BSA (532-nm laser photolysis); assay type: physicochemical
Protocol: Spectrophotometric studies were performed with a Shimadzu UV-2101PC spectrophotometer. 1-Octanol/water partition coefficients^18 (P), were determined at 25° C. using equal volumes of water and 1-octanol. Typically, five distinct solutions of each dye in the concentration range between 1 μM and 10 μM were prepared in deionized water and subsequently equilibrated with 1-octanol. After the equilibrium was reached, the final dye concentrations in the aqueous and/or organic phases were determined by absorption spectroscopy. For the measurement of photobleaching quantum efficiencies, the samples were placed in standard 10-mm (optical path) quartz cells at a distance of approximately 10 cm from the light source and photolyzed using the 532-nm line of an Nd:YAG laser model 7010 from Continuum operating at a repetition rate of 10 Hz. The defocused laser beam (circular profile with a diameter of about 5 mm) was directed to the center of the quartz cell. The absolute photolysis energy (or the number of 532-nm photons per laser pulse) was kept constant over the course of any specific experiment. The temperature-controlled cell holder allowed continuous magnetic stirring of the samples during photolysis. The photobleaching quantum efficiencies were based on the photobleaching efficiency of a classical chemical actinometer, potassium ferrioxalate, ^19,20 and determined considering only the first 5 to 10% decrease in dye concentration. The photolysis energy was adjusted to appropriate levels with the use of a calibrated solid-state joulemeter model PM30VI from Molectron.
To explore how the photoreactivity of the TAM^+dyes in complex biologic environments correlates with the observed phototoxic effects toward tumor and normal cells, the photo-bleaching efficiency of TAM^+dyes noncovalently bound to a model biologic host (bovine serum albumin, BSA) was measured. For the case of CFU-GM cells, the efficacy of photoinduced cell destruction mediated by TAM^+dyes precisely paralleled the photochemical reactivity of these photosensitizers. Both, phototoxicity (FIG. 3, lower panel) and photoreactivity (Table 1) followed the decreasing order EV^+>VPBBO^+>CV^+>VBR^+.

RBL cells = test: Two-photon laser scanning microscopy of intracellular dye distribution; assay type: cell-based, rat; conditions: 0.2 μM dye; for intracellular distribution of dye fluorescence: 10 minutes incubation
Protocol: RBL cells were incubated in the dark at a concentration of 1.1×10^5 cells/mL for periods ranging from 1 minute to 1 hour with fresh growth media containing 0.2 μM CV^+or Ev^+and subsequently incubated for 30 minutes in the dark with fresh growth media containing 0.05 μM Rh123; After a final cycle of washing and incubation for 15 minutes in fresh growth media, the media were replaced by modified Tyrode's solution containing 5 mM glucose and bovine serum albumin, and the cells were subjected to two-photon imaging. The examination of TAM^+accumulation into mitochondria was carried out through the comparison of the spatial distribution of the fluorescence of these dyes in the cellular environment with that of Rh123 (a classical mitochondrial marker^1,3) and the endogenous NAD(P)H. Fluorescence distributions within living RBL cells were obtained with a laser scanning multiphoton microscope (Bio-Rad MP1024). […] Three external detectors located in the Fourier plane of the microscope and equipped with appropriate sets of longpass dichroic and bandpass filters (from Chroma) were used for the simultaneous detection of two-photon excited fluorescence of NAD(P)H (400-500 nm), Rh123 (520-550 nm), and CV^+or EV^+(600-660 nm). To obtain sufficient fluorescence from CV^+,EV^+, and cellular NAD(P)H autofluorescence (all inefficient fluorophores), average excitation powers of approximately 18 mW were required. […]
Two-photon laser scanning microscopy^22,28 was used to obtain information on intracellular distribution and mitochondrial accumulation of CV^+and EV^+in RBL cells. […] Simultaneous two-photon images of NAD(P)H, Rh123, and TAM^+fluorescence were obtained by exciting RBL cells at 750 nm with a Ti:Sapphire laser (75 fs, 80 MHz, 18 mW) as the excitation source. No morphologic alterations or induction of fluorescence attributed to cellular photodamage was observed during the brief imaging period (approximately 3 seconds), and the bleaching of the three fluorophores was also negligible during this period. […]

Compound | phototoxicity toward normal hematopoietic CFU-GM cells (in words) (murine CFU-GM cells) | Dye Uptake by L1210 Cells (L1210 cells) [molecules/cell] | quantum efficiency of photobleaching, nitrogen-purged relative to air-equilibrated samples ([1]; BSA-bound) | photobleaching efficiency of dimer relative to monomer ([1]; BSA-bound, air-equilibrated) | photobleaching efficiency of BSA-bound dimer ([1]; air-equilibrated samples, dimer) | photobleaching efficiency of BSA-bound monomer ([1]; air-equilibrated samples, monomer) | relative efficiency of uptake by L1210 cells (in words) (L1210 cells; among the TAM+ dyes tested) | intracellular distribution of dye fluorescence (RBL cells) | effect on mitochondria after prolonged incubation (RBL cells; 1 hour incubation, then 0.05 μM Rh123) | phototoxicity toward normal hematopoietic CFU-GM cells (in words) (murine CFU-GM cells; listed as VPBBO+)
CCN=C1C=CC(=C(c2ccc(N(C)C)cc2)c2ccc(N(C)C)cc2)c2ccccc21.Cl [VBR^+, victoria blue R] | lowest efficacy | 8.8e+07 | – | – | – | – | – | – | – | –
CN(C)c1ccc(C(=C2C=CC(=[N+](C)C)C=C2)c2ccc(N(C)C)cc2)cc1 [CV^+, crystal violet] | comparatively small toxic effects | 2.14e+08 | twofold higher | eightfold higher | 1.1×10^−4 | 1.3×10^−5 | most efficiently taken up by L1210 cells | consistent with mitochondrial localization | mitochondrial inner membrane potential has been reduced | –
CCN=C1C=CC(=C(c2ccc(N(CC)CC)cc2)c2ccc(N(CC)CC)cc2)c2ccccc21.Cl [VPBBO^+, victoria pure blue BO] | considerably more efficient in inactivating normal hematopoietic cells | 1.16e+08 | – | – | – | – | – | – | – | intermediate efficacy
CCN(CC)c1ccc(C(=C2C=CC(=[N+](CC)CC)C=C2)c2ccc(N(CC)CC)cc2)cc1 [EV^+, ethyl violet] | phototoxic toward both cell lines | 1.76e+08 | – | – | – | – | – | also accumulates into cell mitochondria | – | –
